Data from PubChem BioAssay (NCI).
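Step 1: Grow cells in 96-well plates. Step 2: Expose to compound for 48 hours at 5 concentrations. Step 3: Interpolate endpoints linearly; if unreached, use highest concentration. GI50 marks 50% less growth. TGI marks complete inhibition of growth.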

Experiments:
Test in all cases: NCI tumour cell line growth inhibition, 48 h
[1] = system: 786-0 renal
[2] = system: A498 renal
[3] = system: A549 NSCLC
[4] = system: ACHN renal
[5] = system: BT-549 breast
[6] = system: CAKI-1 renal
[7] = system: CCRF-CEM leukemia
[8] = system: COLO 205 colon
[9] = system: DU-145 prostate
[10] = system: EKVX NSCLC
[11] = system: HCC-2998 colon
[12] = system: HCT-116 colon
[13] = system: HCT-15 colon
[14] = system: HL-60(TB) leukemia
[15] = system: HOP-62 NSCLC
[16] = system: HS 578T breast
[17] = system: HT29 colon
[18] = system: IGROV1 ovarian
[19] = system: K-562 leukemia
[20] = system: KM12 colon
[21] = system: LOX IMVI melanoma
[22] = system: M14 melanoma
[23] = system: MALME-3M melanoma
[24] = system: MCF7 breast
[25] = system: MDA-MB-231 breast
[26] = system: MDA-MB-435
[27] = system: MOLT-4 leukemia
[28] = system: NCI-H226 lung
[29] = system: NCI-H23 lung
[30] = system: NCI-H460 lung
[31] = system: NCI-H522 lung
[32] = system: NCI/ADR-RES ovarian
[33] = system: OVCAR-3 ovarian
[34] = system: OVCAR-4 ovarian
[35] = system: OVCAR-5 ovarian
[36] = system: OVCAR-8 ovarian
[37] = system: PC-3 prostate
[38] = system: RPMI-8226 leukemia
[39] = system: SF-268 CNS
[40] = system: SF-295 CNS
[41] = system: SF-539 CNS
[42] = system: SK-MEL-2 melanoma
[43] = system: SK-MEL-28 melanoma
[44] = system: SK-MEL-5 melanoma
[45] = system: SK-OV-3 ovarian
[46] = system: SN12C renal
[47] = system: SNB-19 CNS
[48] = system: SNB-75 CNS
[49] = system: SR leukemia
[50] = system: SW-620 colon
[51] = system: TK-10 renal
[52] = system: U251 CNS
[53] = system: UACC-257 melanoma
[54] = system: UACC-62 melanoma
[55] = system: UO-31 renal

With COc1cccc(C2C3=C(COC3=O)N(CCO)c3cc(OC)ccc32)c1 (configuration not stated) the GI50 [1] was 148 nM, the TGI [1] was greater than 29.6 µM and the GI50 [2] was 36.7 nM. The TGI [2] was 1080 nM, the GI50 [3] was 120 nM and the TGI [3] was greater than 100 µM. The GI50 [4] was 230 nM, the TGI [4] was greater than 100 µM and the GI50 [5] was 295 nM. The TGI [5] was greater than 28.5 µM, the GI50 [6] was 768 nM and the TGI [6] was greater than 100 µM. It also gave a GI50 [7] of 204 nM, a TGI [7] greater than 100 µM and a GI50 [8] of 107 nM. For the same compound, the TGI [8] was 755 nM, the GI50 [9] was 139 nM and the TGI [9] was 1910 nM. For the same compound, the GI50 [10] was 22.6 µM, the TGI [10] was greater than 100 µM and the GI50 [11] was 137 nM. For the same compound, the TGI [11] was greater than 100 µM, the GI50 [12] was 107 nM and the GI50 [13] was 121 nM. For the same compound, the TGI [13] was greater than 100 µM, the GI50 [14] was 276 nM and the TGI [14] was greater than 100 µM. For the same compound, the GI50 [15] was 124 nM, the TGI [15] was greater than 100 µM and the GI50 [16] was 188 nM. For the same compound, the TGI [16] was greater than 80.8 µM, the GI50 [17] was 74.3 nM and the TGI [17] was 2900 nM. The GI50 [18] was 305 nM, the TGI [18] was greater than 100 µM and the GI50 [19] was 89.5 nM. The TGI [19] was greater than 100 µM, the GI50 [20] was 54.3 nM and the GI50 [21] was 227 nM. For the same compound, the TGI [21] was greater than 100 µM, the GI50 [22] was 156 nM and the TGI [22] was greater than 100 µM. The GI50 [23] was 78.6 nM, the TGI [23] was greater than 100 µM and the GI50 [24] was 34.8 nM. For the same compound, the TGI [24] was greater than 100 µM, the GI50 [25] was 362 nM and the TGI [25] was 4.91 µM. For the same compound, the GI50 [26] was 23.2 nM, the TGI [26] was 63.1 nM and the GI50 [27] was 440 nM. The TGI [27] was greater than 100 µM, the GI50 [28] was 182 nM and the TGI [28] was 8.86 µM. It also gave a GI50 [29] of 172 nM, a TGI [29] greater than 100 µM and a GI50 [30] of 90.6 nM. For the same compound, the GI50 [31] was 30.7 nM, the TGI [31] was 1440 nM and the GI50 [32] was 90.8 nM. It also gave a GI50 [33] of 34.7 nM, a TGI [33] of 166 nM and a GI50 [34] of 153 nM. The TGI [34] was greater than 100 µM, the GI50 [35] was 442 nM and the TGI [35] was greater than 100 µM. It also gave a GI50 [36] of 206 nM, a TGI [36] greater than 100 µM and a GI50 [37] of 89.8 nM. The TGI [37] was greater than 100 µM, the GI50 [38] was 271 nM and the TGI [38] was greater than 100 µM. The GI50 [39] was 181 nM, the TGI [39] was greater than 100 µM and the GI50 [40] was 42.2 nM. The TGI [40] was greater than 100 µM, the GI50 [41] was 87.8 nM and the GI50 [42] was 536 nM. For the same compound, the GI50 [43] was 130 nM, the TGI [43] was greater than 100 µM and the GI50 [44] was 47.4 nM. The TGI [44] was 1970 nM, the GI50 [45] was 109 nM and the GI50 [46] was 493 nM. For the same compound, the TGI [46] was greater than 100 µM, the GI50 [47] was 221 nM and the TGI [47] was greater than 100 µM. The GI50 [48] was 67.1 nM, the TGI [48] was greater than 100 µM and the GI50 [49] was 49.3 nM. For the same compound, the TGI [49] was greater than 100 µM, the GI50 [50] was 86.3 nM and the TGI [50] was greater than 100 µM. The TGI [51] was greater than 100 µM, the GI50 [52] was 99.2 nM and the TGI [52] was greater than 100 µM. The GI50 [53] was 36 nM, the TGI [53] was greater than 100 µM and the GI50 [54] was 48.8 nM. The TGI [54] was greater than 100 µM, the GI50 [55] was 187 nM and the TGI [55] was greater than 100 µM.
